What was measured:
Format in all cases: cell-based
U251 = assay: In vitro cytotoxicity, NCI screen: U251 (CNS); conditions: Homo sapiens, U-251; U251, CNS panel, NCI protocol; read-out: GI50 values (μM conc.)
Experimental: (§1) The in vitro anticancer activity studies for these amidobenzothiazoles were carried out at the National Cancer Institute, Maryland, USA.
(§2) The amidobenzothiazoles have been tested against sixty human tumor cell lines derived from nine cancer types (leukemia cancer cell line, non-small cell lung cancer cell line, colon cancer cell line, CNS cancer cell line, melanoma cancer cell line, ovarian cancer cell line, renal cancer cell line, prostate cancer cell line and breast cancer cell lines). For these compounds results are expressed in GI50 values of that particular cancer cell at micro molar (μM) concentration as per NCI protocol.

SK-MEL-5 = assay: In vitro cytotoxicity, NCI screen: SK-MEL-5 (Melanoma); conditions: Homo sapiens; SK-MEL-5, Melanoma panel, NCI protocol; read-out: GI50 values (μM conc.)
Experimental: as §1, §2

SK-OV-3 = assay: In vitro cytotoxicity, NCI screen: SK-OV-3 (Ovarian); conditions: Homo sapiens; SK-OV-3, Ovarian panel, NCI protocol; read-out: GI50 values (μM conc.)
Experimental: as §1, §2

UACC-257 = assay: In vitro cytotoxicity, NCI screen: UACC-257 (Melanoma); conditions: Homo sapiens; UACC-257, Melanoma panel, NCI protocol; read-out: GI50 values (μM conc.)
Experimental: as §1, §2

SF-268 = assay: In vitro cytotoxicity, NCI screen: SF-268 (CNS); conditions: Homo sapiens, read-out: GI50 values (μM conc.)
Experimental: as §1, §2

NCI/ADR-RES = assay: In vitro cytotoxicity, NCI screen: NCI/ADR-RES (Ovarian); conditions: Homo sapiens, Ovarian panel, NCI protocol, read-out: GI50 values (μM conc.)
Experimental: as §1, §2

CNS cancer cell lines = assay: In vitro activity against CNS cancer cell lines (panel range); conditions: Homo sapiens, read-out: GI50 values, range over the listed compounds and the panel
Experimental: as §1, §2

SK-MEL-28 = assay: In vitro cytotoxicity, NCI screen: SK-MEL-28 (Melanoma); conditions: Homo sapiens; SK-MEL-28, Melanoma panel, NCI protocol; read-out: GI50 values (μM conc.)
Experimental: as §1, §2

OVCAR-5 = assay: In vitro cytotoxicity, NCI screen: OVCAR-5 (Ovarian); conditions: Homo sapiens; OVCAR-5, Ovarian panel, NCI protocol; read-out: GI50 values (μM conc.)
Experimental: as §1, §2

UO-31 = assay: In vitro cytotoxicity, NCI screen: UO-31 (Renal); conditions: Homo sapiens; UO-31, Renal panel, NCI protocol; read-out: GI50 values (μM conc.)
Experimental: as §1, §2

CAKI-1 = assay: In vitro cytotoxicity, NCI screen: CAKI-1 (Renal); conditions: Homo sapiens; CAKI-1, Renal panel, NCI protocol; read-out: GI50 values (μM conc.)
Experimental: as §1, §2

COLO-205 = assay: In vitro cytotoxicity, NCI screen: COLO-205 (Colon); conditions: Homo sapiens; COLO-205, Colon panel, NCI protocol; read-out: GI50 values (μM conc.)
Experimental: as §1, §2

HT29 = assay: In vitro cytotoxicity, NCI screen: HT29 (Colon); conditions: Homo sapiens, HT-29; HT29, Colon panel, NCI protocol; read-out: GI50 values (μM conc.)
Experimental: as §1, §2

SNB-75 = assay: In vitro cytotoxicity, NCI screen: SNB-75 (CNS); conditions: Homo sapiens; SNB-75, CNS panel, NCI protocol; read-out: GI50 values (μM conc.)
Experimental: as §1, §2

NCI-H322M = assay: In vitro cytotoxicity, NCI screen: NCI-H322M (Non-small cell lung); conditions: Homo sapiens, Non-small cell lung panel, NCI protocol, read-out: GI50 values (μM conc.)
Experimental: as §1, §2

HOP-92 = assay: In vitro cytotoxicity, NCI screen: HOP-92 (Non-small cell lung); conditions: Homo sapiens; HOP-92, Non-small cell lung panel, NCI protocol; read-out: GI50 values (μM conc.)
Experimental: as §1, §2

NCI-H226 = assay: In vitro cytotoxicity, NCI screen: NCI-H226 (Non-small cell lung); conditions: Homo sapiens; NCI-H226, Non-small cell lung panel, NCI protocol; read-out: GI50 values (μM conc.)
Experimental: as §1, §2

RPMI-8226 = assay: In vitro cytotoxicity, NCI screen: RPMI-8226 (Leukemia); conditions: Homo sapiens; RPMI-8226, Leukemia panel, NCI protocol; read-out: GI50 values (μM conc.)
Experimental: as §1, §2

TK-10 = assay: In vitro cytotoxicity, NCI screen: TK-10 (Renal); conditions: Homo sapiens; TK-10, Renal panel, NCI protocol; read-out: GI50 values (μM conc.)
Experimental: as §1, §2

RXF 393 = assay: In vitro cytotoxicity, NCI screen: RXF 393 (Renal); conditions: Homo sapiens; RXF 393, Renal panel, NCI protocol; read-out: GI50 values (μM conc.)
Experimental: as §1, §2

T-47D = assay: In vitro cytotoxicity, NCI screen: T-47D (Breast); conditions: Homo sapiens, T47D, Breast panel, NCI protocol, read-out: GI50 values (μM conc.)
Experimental: as §1, §2

SW-620 = assay: In vitro cytotoxicity, NCI screen: SW-620 (Colon); conditions: Homo sapiens; SW-620, Colon panel, NCI protocol; read-out: GI50 values (μM conc.)
Experimental: as §1, §2

786-0 = assay: In vitro cytotoxicity, NCI screen: 786-0 (Renal); conditions: Homo sapiens; 786-0, Renal panel, NCI protocol; read-out: GI50 values (μM conc.)
Experimental: as §1, §2

PC-3 = assay: In vitro cytotoxicity, NCI screen: PC-3 (Prostate); conditions: Homo sapiens; PC-3, Prostate panel, NCI protocol; read-out: GI50 values (μM conc.)
Experimental: as §1, §2

SF-539 = assay: In vitro cytotoxicity, NCI screen: SF-539 (CNS); conditions: Homo sapiens, read-out: GI50 values (μM conc.)
Experimental: as §1, §2

OVCAR-3 = assay: In vitro cytotoxicity, NCI screen: OVCAR-3 (Ovarian); conditions: Homo sapiens; OVCAR-3, Ovarian panel, NCI protocol; read-out: GI50 values (μM conc.)
Experimental: as §1, §2

K-562 = assay: In vitro cytotoxicity, NCI screen: K-562 (Leukemia); conditions: Homo sapiens, K562; read-out: GI50 values (μM conc.)
Experimental: as §1, §2

EKVX = assay: In vitro cytotoxicity, NCI screen: EKVX (Non-small cell lung); conditions: Homo sapiens, Non-small cell lung panel, NCI protocol, read-out: GI50 values (μM conc.)
Experimental: as §1, §2

| SMILES | GI50 (U251) [µM] | GI50 (SK-MEL-5) [µM] | GI50 (SK-OV-3) [µM] | GI50 (UACC-257) [µM] | GI50 (SF-268) [µM] | GI50 (NCI/ADR-RES) [µM] | GI50 (CNS cancer cell lines) [µM] | GI50 (SK-MEL-28) [µM] | GI50 (OVCAR-5) [µM] | GI50 (UO-31) [µM] | GI50 (CAKI-1) [µM] | GI50 (COLO-205) [µM] | GI50 (HT29) [µM] | GI50 (SNB-75) [µM] | GI50 (NCI-H322M) [µM] | GI50 (HOP-92) [µM] | GI50 (NCI-H226) [µM] | GI50 (RPMI-8226) [µM] | GI50 (TK-10) [µM] | GI50 (RXF 393) [µM] | also measured |
| --- | --- | --- | --- | --- | --- | --- | --- | --- | --- | --- | --- | --- | --- | --- | --- | --- | --- | --- | --- | --- | --- |
| COc1ccc(/C=C/C(=O)c2cc(OC)c(OC)c(OC)c2)cc1OCC(=O)Nc1nc2ccc(OC(F)(F)F)cc2s1 [Compound 9j, N1-(6-(trifluoromethoxy)-1,3-benzothiazol-2-yl)-2-{2-methoxy-5-[(E)-3-oxo-3-(3,4,5-trimethoxyphenyl)-1-propenyl]phenoxy}acetamide] | 0.7 | 2.03 | 2.16 | 8.08 | 1.2 | 0.49 | 0.045 to 18.8 | 3.31 | 4.76 | 1.61 | 2.2 | 6.37 | 3.66 | 0.34 | 2.77 | 2.14 | 3.35 | 2.02 | 2.08 | 1.58 | GI50 (T-47D): 3.08 µM; GI50 (SW-620): 1.08 µM; GI50 (786-0): 2.26 µM; GI50 (PC-3): 3.14 µM; GI50 (SF-539): 0.29 µM; GI50 (OVCAR-3): 1.52 µM; GI50 (K-562): 0.43 µM; GI50 (EKVX): 5.11 µM |
| COc1ccc2nc(NC(=O)COc3cc(/C=C\c4cc(OC)c(OC)c(OC)c4)ccc3OC)sc2c1 [Compound 8g, N1-(6-methoxy-1,3-benzothiazol-2-yl)-2-{2-methoxy-5-[(Z)-2-(3,4,5-trimethoxyphenyl)-1-ethenyl]phenoxy}acetamide] | 4 | 2.68 | 4.69 | 63 | 4.31 | 2.3 | 0.045 to 18.8 | 4.41 | 5.89 | 4.31 | 3.2 | 3.89 | 3.34 | 1.91 | > 100 | 6.28 | 4.51 | 5.43 | 7.54 | 2.5 | GI50 (T-47D): 4.03 µM; GI50 (SW-620): 5.1 µM; GI50 (786-0): 7.52 µM; GI50 (PC-3): 4.45 µM; GI50 (SF-539): 2.84 µM; GI50 (OVCAR-3): 2.17 µM; GI50 (K-562): 3.6 µM; GI50 (EKVX): 5.11 µM |
